Source: patent US20240317762A1, “PHTHALAZINONE-BASED PARP-1 INHIBITORS” (Oregon Health & Science University, priority 2021, published 2024)
Several values for one entry are separate records, joined by “and”; a condition that tells them apart may be missing. Equal entries are not always repeated.

Assays:
PARP-1 = PARP-1 (Homo sapiens, UniProt P09874); test: in vitro PARP-1 auto-PARylation assay (SRPK2 plate assay); type: biochemical; parameters: The full-length WT PARP-1 protein used in these assays; made in house; settings: read-out: IC50 against PARP-1 catalytic activity (auto-PARylation)
Experimental: IC50 SRPK2 Plate Assays were performed as previously described (21). Log(inhibitor) versus response curves were fit using non-linear regression with variable slope. Mean IC50 values for each compound were derived from a minimum of three separate replicates.

HEK 293T cells [1] = test: cell proliferation (MTT) assay; type: cell-based, human
D770A PARP-1 = D770A PARP-1 (Homo sapiens, UniProt P09874, D770A); test: fluorescence polarization DNA competition and affinity assays, D770A mutant; type: binding
Experimental: FIG. 4B) Helical domain (pink cartoon) movement observed during the simulation, the red arrows indicate length and direction of movement. FIG. 4C) The residue-residue distance observed between the Ca atoms R878-D770 and Y889-V758, the increased distance sampling corresponds to the helical domain movement. FIG. 4D) PARP-1 WT, D770A, or R878A (40 nM) was incubated with a dumbbell DNA probe carrying an internal FAM group and a central nick at 20 nM with or without compound (25 μM) for 30 minutes. An unlabeled competitor was added and the decrease in fluorescence polarization was measured across time. FIG. 4E) The Kd of PARP-1 WT, D770A, or R878A for a DNA dumbbell probe containing a central nick (5 nM) was measured in a fluorescence polarization assay with and without inhibitor (5 μM). Error bars represent Standard Error of the Mean (SEM) (n=3).

HEK 293T cells [2] = test: analysis of cell cycle (DAPI, flow cytometry)
Experimental: After the indicated treatments, cells were washed twice with 1× PBS, trypsinized off of the plate, and washed an additional 2 times with 1×PBS. Cells were then permeabilized using 70% cold ethanol while vortexing before incubating for 30 min at 4° C. Cells were then washed three times with 1×PBS and counted using a hemocytometer to create a final pellet of 1×10^6 cells in for each inhibitor condition. 500 μl of DAPI solution (1 μg/ml DAPI, 0.1% Triton X-100 in PBS) was added to each cell pellet and incubated on ice for 30 min before being analyzed by flow cytometry using a BD Canto II. All data was analyzed on FlowJo software, gating for 20,000 singlet events. Manual cell cycle gates were set onto the DMSO control data using Watson modeling as reference. These gates were applied to all treatment conditions to obtain quantitative analysis.
Error bars represent SEM. […] Caspase-Glo 3/7 reagent was added to each well and luminescence was read after 30 minutes. […] Error bars represent SEM. […] Cell cycle was analyzed by flow cytometry (20,000 singlet events) and cell cycle statistics were calculated in FlowJo software against DMSO Watson modeling (n=3). FIG. 3F) DNA synthesis was measured using EdU incorporation. […] EdU incorporation was labelled using TAMRA azide click-chemistry and imaged at 20×. Mean intensity of TAMRA signal within DAPI masks analyzed using Zen software (n>3900 cells over 2 replicates). Values are normalized to the average DMSO control within each replicate. Error bars represent SEM. Statistical significance calculated via one-way ANOVA with Tukey's multiple comparisons test (p<0.05).

[3] = test system: caspase-3/7 activity in HEK 293 cells; test: cell apoptosis assay (Caspase-Glo 3/7); type: cell-based, human; settings: 1 μM, 72 hours
Experimental: HEK 293 or HEK 293 PARP-1 KO cells were seeded in a 96 well plate at 1000-2000 cells per well, a media only “blank” was also included. Following an overnight incubation, cells were treated with 1 μM of indicated inhibitors. “Blank” wells were treated with DMSO. Following a 72 hour inhibitor treatment, the Caspase-Glo 3/7 Assay was completed following the manufacturer instructions (Promega, #G8091). Luminescence was read on a SpectraMax i3 plate reader (Molecular Devices).
(§1) Error bars represent SEM. […] Error bars represent SEM. […] Error bars represent SEM.

HEK 293T cells [4] = test: DNA synthesis assay (EdU incorporation); type: cell-based, human; settings: 1 μM, 18 hours, then 10 μM EdU 1.5 hours
Experimental: HEK 293T cells were seeded onto poly-d-lysine treated glass coverslips. […] After incubation, cells were treated with 10 μM EdU (5-ethynyl-2′-deoxyuridine) for 1.5 hours and subsequently fixed with 4% Sucrose/4% Paraformaldehyde in PBS for 15 minutes at RT. Cells were washed 2× with 3% BSA in PBS and permeabilized with 0.3% Triton X-100 in PBS for 20 minutes at RT. After two additional 3% BSA in PBS washes, coverslips were incubated with 500 μl Click-iT reaction cocktail [1× Click-iT reaction buffer, 2 mM CuSO4, 5 μM TAMRA Azide, Reaction buffer additive] for 30 minutes at room temperature (RT) protected from the light. Cells were washed once more with 3% BSA in PBS and twice more with 1×PBS before being mounted using ProLong Gold antifade reagent with DAPI (Invitrogen). All immunofluorescence images were taken on a Zeiss ApoTome2 on Axiolmager and analyzed using Zeiss software. Mean intensity of the TAMRA signal was measured after imposing DAPI masks over the nucleus of each cell. All cells within a 20× image, was analyzed (˜3000 cells/condition).
as §1

R878A PARP-1 = R878A PARP-1 (Homo sapiens, UniProt P09874, R878A); test: catalytic activity of PARP-1 mutant expressed in HEK 293 cells, R878A; type: biochemical; settings: 3 μM AZ0108
R878A PARP-1, sequence (P09874 whole entry R878A): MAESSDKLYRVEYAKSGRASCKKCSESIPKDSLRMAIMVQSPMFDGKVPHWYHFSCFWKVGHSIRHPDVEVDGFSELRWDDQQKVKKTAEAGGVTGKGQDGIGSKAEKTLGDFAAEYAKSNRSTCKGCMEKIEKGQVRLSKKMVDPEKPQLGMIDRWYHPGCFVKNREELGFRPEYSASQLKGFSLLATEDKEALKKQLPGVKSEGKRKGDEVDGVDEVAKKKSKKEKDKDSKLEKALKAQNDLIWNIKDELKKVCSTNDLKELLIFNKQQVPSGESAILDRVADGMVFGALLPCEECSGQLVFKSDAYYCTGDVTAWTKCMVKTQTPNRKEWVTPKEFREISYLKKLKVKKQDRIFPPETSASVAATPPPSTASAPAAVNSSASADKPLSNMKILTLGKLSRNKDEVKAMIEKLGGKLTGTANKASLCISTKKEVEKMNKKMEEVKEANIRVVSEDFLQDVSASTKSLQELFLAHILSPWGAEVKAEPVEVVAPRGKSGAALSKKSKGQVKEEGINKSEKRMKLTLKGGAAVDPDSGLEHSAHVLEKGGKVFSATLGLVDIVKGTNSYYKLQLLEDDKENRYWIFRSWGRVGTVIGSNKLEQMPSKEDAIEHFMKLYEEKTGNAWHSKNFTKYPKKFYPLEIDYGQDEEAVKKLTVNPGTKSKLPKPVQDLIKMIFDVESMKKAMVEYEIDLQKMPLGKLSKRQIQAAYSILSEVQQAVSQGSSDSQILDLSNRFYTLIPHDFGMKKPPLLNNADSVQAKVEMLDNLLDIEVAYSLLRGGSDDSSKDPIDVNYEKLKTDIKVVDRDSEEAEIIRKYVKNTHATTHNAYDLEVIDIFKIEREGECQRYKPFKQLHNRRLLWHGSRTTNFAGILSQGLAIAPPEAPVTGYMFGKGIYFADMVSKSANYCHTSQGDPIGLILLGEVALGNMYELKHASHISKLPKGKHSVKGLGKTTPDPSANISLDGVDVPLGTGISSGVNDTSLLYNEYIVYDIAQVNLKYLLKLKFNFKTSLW

D770A PARP-1, sequence (P09874 whole entry D770A, the tested form may be a part): as the sequence (P09874 whole entry R878A) above, with D770A, A878R counted along it
PARP-1, sequence (P09874 whole entry): as the sequence (P09874 whole entry R878A) above, with A878R counted along it

IC50 (PARP-1): 12 nM
D770A PARP-1's affinity for DNA (D770A PARP-1; 5 μM inhibitor): nor did it change
exchange of the D770A PARP-1:labled DNA with unlabeled DNA (D770A PARP-1; 25 μM compound): did not impact
inhibition of R878A PARP-1 activity (R878A PARP-1): inhibited
Substance: (S)-4-(difluoro(3-(6-methyl-3-(trifluoromethyl)-5,6,7,8-tetrahydro-[1,2,4]triazolo[4,3-a]pyrazine-7-carbonyl)phenyl)methyl)phthalazin-1(2H)-one [AZ0108]
EC50 (HEK 293T cells [1]; MTT, 72 h, read-out: EC50 cell growth): 30 nM and 29.7 nM
right-shift of the EC50 value for AZ0108 on cell growth (HEK 293T cells [1]; dual-treated with olaparib): 10 fold
G1 (HEK 293T cells [2]; DAPI intensity, 18 hours): 9.31%
G2 (HEK 293T cells [2]; DAPI intensity, 18 hours): 9.65%
S (HEK 293T cells [2]; DAPI intensity, 18 hours): 77.4%
effect on cell cycle (HEK 293T cells [2]; FACS, DAPI fluorescence): arrested HEK 293 cells in S-phase
reduction of caspase-3/7 activity [3]: 75%
block of EdU incorporation (HEK 293T cells [4]): 65%
